We go through eight compounds from US20100160264A1, “CRYSTALLINE SOLID FORMS” (priority 2007, published 2010).

The nature of series [1]: Water content and hygroscopicity: open storage for 24 hours at 80% relative humidity. In kind it is physicochemical. As to conditions: for water content 1 day at 80% rH: open storage 1 day at 80% rH; for water uptake 1 day at 80% rH / Hygroscopicity in words: open storage 24 hours at 80% relative humidity. From the text: Furthermore suitable crystalline forms of Tigecycline should be low hygroscopic, as water uptake may cause the formation of undesired byproducts like e.g. 4-Epi-Tigecycline.

Series [2] can be described thus: Stability after storing different crystalline forms of Tigecycline at 80° C. for 7 days (4-Epi-Tigecycline and total impurities). The series is classed as physicochemical. As to conditions: for Stability in words (total impurities and 4-Epi-Tigecycline content): 7 days at 80° C.; for 4-Epi-Tigecycline 7 days at 80° C. / Total impurities 7 days at 80° C.: after storing 7 days at 80° C., in % (unit assumed); for 4-Epi-Tigecycline ambient conditions / Total impurities ambient conditions: before storage, depends on purity of the starting material. From the text:
A suitable crystalline form of Tigecycline for formulating an anti-infective medicament first of all is required to be thermodynamic stable, in order to avoid formation of degradation products.

The conditions of series [3]: 30 min.
Procedure: The water solubility determination of the different crystalline forms of Tigecycline was performed on a Perkin Elmer® Lambda 35 UV/VIS spectrometer. The software used was Perkin Elmer® UV WlnLab-5.1.
200 mg of Tigecycline were stirred with 1 ml distilled water at room temperature for 30 minutes. The suspension was filtered through a 0.45 μm filter and 100 μl of the solution were transferred into a 1 L volumetric flask. After filling up to the check mark with distilled water the solution was measured at 347 nm.
For series [4] the following is noted: cited from earlier work.

In brackets after ≈: the same amount, converted by molar mass. Where only a bound is given, the exact number is not on record here.

For `CN(C)c1cc(NC(=O)CNC(C)(C)C)c(O)c2c1C[C@H]1C[C@H]3[C@H](N(C)C)C(O)=C(C(N)=O)C(=O)[C@@]3(O)C(O)=C1C2=O` [Form I, Tigecycline], in series [1] (listed as I), the “water content ambient conditions” value is reported as 2.01%, the “water content 1 day at 80% rH” value is given as 5.01% and the “water uptake 1 day at 80% rH” value is given as 3.00%. For the same compound, the “Stability in words (total impurities and 4-Epi-Tigecycline content)” value (from here on “Stability in words”) in series [2] was “tremendous increase”. Besides, in series [2] (listed as I), the “4-Epi-Tigecycline 7 days at 80° C.” value was 2.15, the “Total impurities 7 days at 80° C.” value was determined as 11.20, the 4-Epi-Tigecycline ambient conditions worked out at 0.36% and the Total impurities ambient conditions is 0.75%. Further, in series [3], the “Solubility, Concentration” value is 185 mg/mL (≈ 316 mM).

On to `CN(C)c1cc(NC(=O)CNC(C)(C)C)c(O)c2c1C[C@H]1C[C@H]3[C@H](N(C)C)C(O)=C(C(N)=O)C(=O)[C@@]3(O)C(O)=C1C2=O` [Form II, Tigecycline], for which, in series [1] (listed as II), the “water content ambient conditions” value worked out at 2.93%, the “water content 1 day at 80% rH” value is 10.04% and the “water uptake 1 day at 80% rH” value is 7.11%. For the same compound, the “Stability in words” value in series [2] (listed as form II) is reported as “tremendous increase”. In series [2] (listed as II), the “4-Epi-Tigecycline 7 days at 80° C.” value worked out at 10.83, the “Total impurities 7 days at 80° C.” value worked out at 18.44, the 4-Epi-Tigecycline ambient conditions was determined as 1.04% and the Total impurities ambient conditions worked out at 1.6%. Moreover, the “Solubility, Concentration” value in series [3] was determined as 177 mg/mL (≈ 302 mM).

Take `CN(C)c1cc(NC(=O)CNC(C)(C)C)c(O)c2c1C[C@H]1C[C@H]3[C@H](N(C)C)C(O)=C(C(N)=O)C(=O)[C@@]3(O)C(O)=C1C2=O` [Form III, Tigecycline]: in series [1] (listed as III), the “water content ambient conditions” value turned out to be 0.69%, the “water content 1 day at 80% rH” value is listed as 8.01% and the “water uptake 1 day at 80% rH” value is listed as 7.32%. In addition, the “water uptake 1 day at 80% rH” value in series [1] is 7.32%. Further, in series [2] (listed as III), the “4-Epi-Tigecycline 7 days at 80° C.” value came to 2.18, the “Total impurities 7 days at 80° C.” value worked out at 4.46, the 4-Epi-Tigecycline ambient conditions came to 0.16% and the Total impurities ambient conditions came to 0.16%. In addition, the “Solubility, Concentration” value in series [3] was determined as 174 mg/mL (≈ 297 mM).

As to `CN(C)c1cc(NC(=O)CNC(C)(C)C)c(O)c2c1C[C@H]1C[C@H]3[C@H](N(C)C)C(O)=C(C(N)=O)C(=O)[C@@]3(O)C(O)=C1C2=O` [Form IV, Tigecycline], in series [1] (listed as IV), the “water content ambient conditions” value stood at 2.90%, the “water content 1 day at 80% rH” value came to 3.33% and the “water uptake 1 day at 80% rH” value turned out to be 0.43%. Also, in series [2] (listed as IV), the “4-Epi-Tigecycline 7 days at 80° C.” value amounted to 0.38, the “Total impurities 7 days at 80° C.” value came to 0.87, the 4-Epi-Tigecycline ambient conditions was 0.23% and the Total impurities ambient conditions turned out to be 0.4%. For the same compound, the “Solubility, Concentration” value in series [3] was found to be 183 mg/mL (≈ 312 mM).

For `CN(C)c1cc(NC(=O)CNC(C)(C)C)c(O)c2c1C[C@H]1C[C@H]3[C@H](N(C)C)C(O)=C(C(N)=O)C(=O)[C@@]3(O)C(O)=C1C2=O` [Form V, Tigecycline], in series [1] (listed as V), the “water content ambient conditions” value was 0.19%, the “water content 1 day at 80% rH” value came to 1.88% and the “water uptake 1 day at 80% rH” value is 1.69%. In series [2] (listed as V), the “4-Epi-Tigecycline 7 days at 80° C.” value came out at 0.18, the “Total impurities 7 days at 80° C.” value turned out to be 0.37, the 4-Epi-Tigecycline ambient conditions was under 0.05% and the Total impurities ambient conditions was 0.22%. Further, in series [3], the “Solubility, Concentration” value stood at 134 mg/mL (≈ 229 mM).

Consider `CN(C)c1cc(NC(=O)CNC(C)(C)C)c(O)c2c1C[C@H]1C[C@H]3[C@H](N(C)C)C(O)=C(C(N)=O)C(=O)[C@@]3(O)C(O)=C1C2=O` [Form VI, Tigecycline], for which, in series [1] (listed as VI), the “water content ambient conditions” value is listed as 0.18%, the “water content 1 day at 80% rH” value amounted to 0.25% and the “water uptake 1 day at 80% rH” value is 0.07%. The Hygroscopicity in words result in series [1] is given as “low hygroscopicity”. In addition, in series [2] (listed as VI), the “Stability in words” value is recorded as “adequate stability data”; the “4-Epi-Tigecycline 7 days at 80° C.” value amounted to 0.38; the “Total impurities 7 days at 80° C.” value was found to be 0.91; the 4-Epi-Tigecycline ambient conditions was 0.17%. The Total impurities ambient conditions in series [2] (listed as VI) is 0.24%. For the same compound, in series [3], the “Solubility, Concentration” value was 76 mg/mL (≈ 130 mM).

As for `CN(C)c1cc(NC(=O)CNC(C)(C)C)c(O)c2c1C[C@H]1C[C@H]3[C@H](N(C)C)C(O)=C(C(N)=O)C(=O)[C@@]3(O)C(O)=C1C2=O` [Form VIII, Tigecycline], in series [1] (listed as VIII), the “water content ambient conditions” value was found to be 0.10%, the “water content 1 day at 80% rH” value stood at 0.21% and the “water uptake 1 day at 80% rH” value is 0.11%. For the same compound, in series [1] (listed as form VIII), the Hygroscopicity in words result is given as “no water uptake at all” and the “water uptake 1 day at 80% rH” value is given as 0.11%. Further, in series [2] (listed as VIII), the “Stability in words” value is “adequate stability data”; the “4-Epi-Tigecycline 7 days at 80° C.” value turned out to be 0.70; the “Total impurities 7 days at 80° C.” value is recorded as 2.13; the 4-Epi-Tigecycline ambient conditions stood at 0.15%. Also, the Total impurities ambient conditions in series [2] (listed as VIII) was 0.43%. Besides, the “Stability in words” value in series [2] (listed as form VIII) was “adequate stability data”. In addition, the “Solubility, Concentration” value in series [3] worked out at 141 mg/mL (≈ 241 mM).

As for `CN(C)c1cc(NC(=O)CNC(C)(C)C)c(O)c2c1C[C@H]1C[C@H]3[C@H](N(C)C)C(O)=C(C(N)=O)C(=O)[C@@]3(O)C(O)=C1C2=O` [Tigecycline, (4S,4aS,5aR,12aS)-4,7-Bis(dimethylamino)-9-[[2-[(1,1-dimethylethyl)amino]acetyl]amino]-1,4,4a,5,5a,6,11,12a-octahydro-3,10,12,12a-tetrahydroxy-1,11-dioxo-2-naphthacene carboxamide], in series [4], the oral bioavailability entry is on record as “very limited”.
